Legend:
Sm5HTR [1] = target: T1, Sm5HTR (Schistosoma mansoni, UniProt G4V5G4); assay: cAMP fluorescent competitive immunoassay, transfected HEK […] cells; assay type: cell-based; conditions: 20 uM forskolin, IBMX pretreatment, 37 °C, 10 min
T1 construct: gene 5HT-1; full length, 463 residues, 52 kDa; pCI-neo; transiently transfected HEK 293 cells
T1 sequence (G4V5G4 1-463): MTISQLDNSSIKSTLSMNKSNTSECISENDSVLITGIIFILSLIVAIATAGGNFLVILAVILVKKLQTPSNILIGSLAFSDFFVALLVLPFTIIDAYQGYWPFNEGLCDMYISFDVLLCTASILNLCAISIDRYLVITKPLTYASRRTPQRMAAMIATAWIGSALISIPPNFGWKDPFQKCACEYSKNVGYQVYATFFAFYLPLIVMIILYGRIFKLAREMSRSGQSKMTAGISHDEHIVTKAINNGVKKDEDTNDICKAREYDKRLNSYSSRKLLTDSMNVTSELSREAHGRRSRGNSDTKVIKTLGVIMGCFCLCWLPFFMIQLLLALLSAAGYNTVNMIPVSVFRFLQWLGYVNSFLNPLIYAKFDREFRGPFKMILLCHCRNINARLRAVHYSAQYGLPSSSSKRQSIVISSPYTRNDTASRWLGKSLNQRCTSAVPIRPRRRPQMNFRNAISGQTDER

Sm5HTR [2] = target: T1, Sm5HTR; assay: as above; assay type: cell-based
[3] = antagonist at 100 uM against 100 uM serotonin

## O=C1CC2(CCCC2)CC(=O)N1CCCCN1CCN(c2ncccn2)CC1 [BUS, buspirone]
Sm5HTR [1]; agonist at 100 uM
  cAMP fluorescent competitive immunoassay, transfected HEK 293 cells: classical (i.e. mammalian) serotonergic agonists such as tryptamine, DPAT and buspiperone

## CN1CCC(=C2c3ccccc3C=Cc3ccccc32)CC1 [CPH, cyproheptadine]
Sm5HTR [1]; [3]
  cAMP fluorescent competitive immunoassay, transfected HEK 293 cells: inhibited by co-application of common serotonergic antagonists such as cyproheptadine or mianserin

## CCCN(CCC)C1CCc2cccc(O)c2C1 (stereo not drawn) [DPAT, 8-Hydroxy-DPAT]
Sm5HTR [1]; agonist at 100 uM
  cAMP fluorescent competitive immunoassay, transfected HEK 293 cells: classical (i.e. mammalian) serotonergic agonists such as tryptamine, DPAT and buspiperone

## CN1CCN2c3ccccc3Cc3ccccc3C2C1 (stereo not drawn) [MIAN, mianserin]
Sm5HTR [1]; [3]
  cAMP fluorescent competitive immunoassay, transfected HEK 293 cells: inhibited by co-application of common serotonergic antagonists such as cyproheptadine or mianserin

## NCCc1c[nH]c2ccccc12 [Trp, tryptamine]
Sm5HTR [1]; agonist at 100 uM
  cAMP fluorescent competitive immunoassay, transfected HEK 293 cells: classical (i.e. mammalian) serotonergic agonists such as tryptamine, DPAT and buspiperone

## COc1ccc2[nH]cc(CCN)c2c1 [methyl-5HT, o-methyl-serotonin]
Sm5HTR [2]
  EC50: 72.2 nM

From PMC3894222 (PLoS Pathogens, 2014)
